Experimental data published in ChEMBL document CHEMBL3351361, “Fragment-based screening of the bromodomain of ATAD2” (J Med Chem, 2014).

Biological target: T1, ATPase family AAA domain-containing protein 2 (Homo sapiens, UniProt Q6PL18)
T1 sequence (Q6PL18 whole entry): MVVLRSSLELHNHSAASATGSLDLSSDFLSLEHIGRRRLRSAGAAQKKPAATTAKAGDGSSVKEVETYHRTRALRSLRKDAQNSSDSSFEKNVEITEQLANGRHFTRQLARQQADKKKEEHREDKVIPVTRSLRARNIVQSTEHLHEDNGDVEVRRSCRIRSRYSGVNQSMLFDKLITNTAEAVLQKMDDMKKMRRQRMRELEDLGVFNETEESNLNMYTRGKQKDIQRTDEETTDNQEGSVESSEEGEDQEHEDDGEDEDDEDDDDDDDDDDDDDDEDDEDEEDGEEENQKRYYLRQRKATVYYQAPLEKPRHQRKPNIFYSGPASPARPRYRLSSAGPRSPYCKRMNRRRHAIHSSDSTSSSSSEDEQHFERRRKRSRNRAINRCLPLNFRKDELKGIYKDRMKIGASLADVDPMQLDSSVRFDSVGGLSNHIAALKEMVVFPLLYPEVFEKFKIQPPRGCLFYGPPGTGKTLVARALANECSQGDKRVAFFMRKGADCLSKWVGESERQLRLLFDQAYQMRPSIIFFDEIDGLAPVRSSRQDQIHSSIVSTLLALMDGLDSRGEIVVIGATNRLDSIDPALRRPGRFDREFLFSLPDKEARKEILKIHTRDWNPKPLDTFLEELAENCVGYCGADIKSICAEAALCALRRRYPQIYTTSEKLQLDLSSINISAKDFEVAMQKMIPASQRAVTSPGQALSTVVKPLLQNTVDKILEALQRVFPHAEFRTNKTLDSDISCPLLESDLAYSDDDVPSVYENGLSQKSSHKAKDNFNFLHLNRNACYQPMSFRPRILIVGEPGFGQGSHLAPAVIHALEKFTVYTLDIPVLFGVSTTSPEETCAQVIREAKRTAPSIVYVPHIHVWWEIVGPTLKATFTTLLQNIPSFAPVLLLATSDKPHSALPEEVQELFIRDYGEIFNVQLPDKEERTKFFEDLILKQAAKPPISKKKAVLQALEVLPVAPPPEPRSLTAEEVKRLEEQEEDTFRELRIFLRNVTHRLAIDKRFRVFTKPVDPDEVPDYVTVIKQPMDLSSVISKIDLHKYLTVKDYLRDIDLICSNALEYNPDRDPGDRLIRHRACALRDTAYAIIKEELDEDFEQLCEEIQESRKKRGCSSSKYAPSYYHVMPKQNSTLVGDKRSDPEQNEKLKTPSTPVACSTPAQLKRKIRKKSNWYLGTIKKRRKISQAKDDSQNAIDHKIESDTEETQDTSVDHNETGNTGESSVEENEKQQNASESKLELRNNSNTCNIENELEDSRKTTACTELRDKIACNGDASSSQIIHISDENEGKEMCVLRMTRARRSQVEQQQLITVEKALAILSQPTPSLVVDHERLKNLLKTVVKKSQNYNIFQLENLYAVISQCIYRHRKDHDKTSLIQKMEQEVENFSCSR
Test: Binding affinity to human ATAD2 (979 to 1108 aa) expressed in Escherichia coli BL21 (DE3) by SOFAST-HMQC NMR spectroscopy

Row | Kd [µM] | Structure (SMILES)
1 | 350 | Nc1cccc(-c2n[nH]c(-c3ccccc3)n2)c1
2 | 600 | Cc1cc2c(cc1N)n(C)c(=O)n2C
